Literature values in article PMC4310643 (ACS Nano, 2015).

Tested on: ABIR

Arg-Gly-Asp-DPhe-Lys (head to tail) [cRGDfK, cyclic peptide, arginine-glycine-aspartic acid-(D)phenylalanine-lysine]
binding affinity to ABIR: high binding affinity to ABIR
